{"source": "paper PMC9675574", "about": "(JCI Insight, 2022)", "key": {"[1]": {"test_system": "cerulein-induced pancreatitis in PRSS1^R122H mice", "details": "cited from earlier work"}, "trypsin": {"test_system": "trypsin", "details": "cited from earlier work"}, "[2]": {"test_system": "transmembrane serine protease 2", "details": "cited from earlier work"}, "[3]": {"test_system": "cerulein-induced pancreatitis in T7K24R mice", "test": "Cerulein-induced pancreatitis in T7K24R mice", "assay_type": "in vivo, mouse", "procedure": "Pancreatitis was induced in T7K24R mice with 8 hourly intraperitoneal injections of the secretagogue peptide cerulein used in a dose of 50 μg/kg. Cerulein (catalog number C9026, MilliporeSigma) was dissolved in sterile normal saline at 10 μg/mL concentration. Mice were sacrificed 1, 24, 48, 72, or 96 hours from the first cerulein injection, as indicated, and the pancreas and blood were harvested. Details of histological analysis and measurement of plasma amylase (4 μL assayed) were reported previously ([29]–[31]).\n(§1) Control mice were given gavage of the vehicle solution (Captisol; see below) or regular chow.\n(§2) Captisol (β-cyclodextrin sulfobutyl ethers, sodium salts, lot number NC-04A-180185) was obtained from Cydex Pharmaceuticals (through Thermo Fisher Scientific) and was dissolved in sterile normal saline (3.5 g in 10 mL). […] The mixture was then compressed into pellets using the barrel of a 10 mL plastic syringe and a plunger. The prodrug-containing pellets were allowed to dry at 24°C for 2 days and stored at 4°C until use."}, "[4]": {"test_system": "spontaneous pancreatitis in T7D23A mice", "test": "Spontaneous pancreatitis in T7D23A mice, oral gavage", "assay_type": "in vivo, mouse", "description": "(§3) The generation and properties of the T7D23A and T7K24R mice carrying trypsinogen mutations were described recently ([29], [30]). Heterozygous T7D23A and homozygous T7K24R mice were used. Protocols for genotyping have been reported earlier ([29], [30]). C57BL/6N mice were purchased from Charles River Laboratories or produced in our breeding facility from the same stock. Both male and female mice were studied.\nas §1, §2"}, "[5]": {"test_system": "spontaneous pancreatitis in T7D23A mice", "test": "Spontaneous pancreatitis in T7D23A mice, feeding with drug-containing chow", "assay_type": "in vivo, mouse", "description": "as §3, §1, §2"}, "T7D23A and T7K24R mice": {"test_system": "T7D23A and T7K24R mice", "test": "Safety observations in treated mice", "assay_type": "in vivo, mouse", "description": "as §1"}, "[6]": {"test": "Estimation of absorbed dabigatran etexilate", "set-up": "species or system mouse"}, "[7]": {"details": "humans; independent of dose, not influenced by food; cited from earlier work"}, "[8]": {"details": "single oral gavage 200 mg/kg 30 minutes after last cerulein injection, 96 hours"}, "[9]": {"details": "single oral gavage 200 mg/kg, 15 treated mice"}, "[10]": {"details": "gavage 1 × 100, 2 × 100 or 1 × 200 mg/kg daily for 2 weeks"}}, "note": "Several values for one entry are separate records, joined by “and”; a condition that tells them apart may be missing. Equal entries are not always repeated. Where two headings read alike, the source gives them in different places.", "data": [{"smiles": "COc1ccc(-n2nc(C(N)=O)c3c2C(=O)N(c2ccc(N4CCCCC4=O)cc2)CC3)cc1", "note": "[apixaban]", "values": [{"measurement": "therapeutic activity", "setting": "[1]; 100 mg/kg alone", "value": "no therapeutic activity whatsoever"}, {"measurement": "therapeutic activity", "setting": "[1]; apixaban 100 mg/kg combined with camostat 200 mg/kg", "value": "highly effective"}, {"measurement": "trypsin-inhibitory activity", "setting": "trypsin", "value": "devoid of trypsin-inhibitory activity"}]}, {"smiles": "CN(C)C(=O)COC(=O)Cc1ccc(OC(=O)c2ccc(NC(=N)N)cc2)cc1", "note": "[camostat]", "values": [{"measurement": "therapeutic activity", "setting": "[1]; 200 mg/kg alone", "value": "only a partial effect"}, {"measurement": "inhibition of transmembrane serine protease 2", "setting": "[2]", "value": "strong inhibitors"}]}, {"smiles": "CCCCCCOC(=O)NC(=N)c1ccc(NCc2nc3cc(C(=O)N(CCC(=O)OCC)c4ccccn4)ccc3n2C)cc1", "note": "[dabigatran etexilate]", "values": [{"measurement": "body weight, start versus end of experiment", "setting": "[3]; [8]", "value": "no change in body weight"}, {"measurement": "pancreas weight versus vehicle-treated mice with pancreatitis", "setting": "[3]; [8]", "value": "significantly higher"}, {"measurement": "share of drug-treated mice with complete protective effect (histology)", "setting": "[3]; [9]", "value": "~50", "unit": "%"}, {"measurement": "share of mice with significant yet incomplete effect (30%–50% normal histology)", "setting": "[3]; [9]", "value": "about 20%"}, {"measurement": "plasma amylase activity in a subset of treated mice (4 of 15)", "setting": "[3]; single oral gavage 200 mg/kg, 4 days after induction", "value": "more than 3 fold"}, {"measurement": "proportion of intact acini versus vehicle-treated group", "setting": "[3]; single oral gavage 200 mg/kg, histology at 96 hours", "value": "significantly higher"}, {"measurement": "intact acini on pancreas sections, individual mice with elevated plasma amylase", "setting": "[3]; single oral gavage 200 mg/kg, the 4 mice with elevated amylase, 200 mg/kg", "value": "45% and 13% and 15% and 35%"}, {"measurement": "intact acini per visual field, treated versus untreated", "setting": "[4]; [10]", "value": "no appreciable difference"}, {"measurement": "pancreas weight", "setting": "[4]; [10]", "value": "did not improve"}, {"measurement": "plasma amylase levels relative to untreated T7D23A controls", "setting": "[4]; [10]", "value": "significantly lower"}, {"measurement": "body weight gain", "setting": "[4]; gavage 1 × 100, 2 × 100 or 1 × 200 mg/kg daily for 2 weeks, 3 to 5 weeks of age", "value": "unaffected by gavage treatment"}, {"measurement": "effect on spontaneous pancreatitis", "setting": "[4]; intragastric gavage for 2 weeks", "value": "did not ameliorate"}, {"measurement": "effect on spontaneous pancreatitis", "setting": "[5]; chow with 10 mg/g for 1 week", "value": "did not prevent or improve"}, {"measurement": "intact acini, pancreatitis severity", "setting": "[5]; chow with 10 mg/g for 1 week", "value": "no effect"}, {"measurement": "plasma amylase activities", "setting": "[5]; chow with 10 mg/g for 1 week, all 4 groups", "value": "comparable"}, {"measurement": "pancreas weight, treated versus untreated", "setting": "[5]; chow with 10 mg/g for 1 week, both strains (C57BL/6N and T7D23A)", "value": "small increase"}, {"measurement": "body weight gain", "setting": "[5]; chow with 10 mg/g, 21 to 28 days of age, C57BL/6N and T7D23A", "value": "gained weight similarly"}, {"measurement": "bleeding, morbidity, mortality", "setting": "T7D23A and T7K24R mice; gavage 100 or 200 mg/kg or chow 10 mg/g", "value": "no bleeding, morbidity, or mortality were observed"}, {"measurement": "hematoxylin-eosin sections of liver, intestine, and kidney", "setting": "T7D23A and T7K24R mice; mice treated with dabigatran etexilate or vehicle", "value": "no signs of organ damage"}, {"measurement": "daily dose of absorbed dabigatran etexilate", "setting": "[6]; 10 mg prodrug/g chow, about 4 g chow per 24 hours, estimated", "value": 2.6, "unit": "mg"}, {"measurement": "systemically absorbed single dose", "setting": "[6]; 100 mg/kg intragastric gavage, 20 g mouse, estimated from human bioavailability", "value": 0.13, "unit": "mg"}, {"measurement": "oral bioavailability", "setting": "[7]", "value": "around 6.5%"}, {"measurement": "effect on cerulein-induced pancreatitis", "setting": "[1]; PRSS1^R122H transgenic mice", "value": "markedly improved"}]}, {"smiles": "N=C(N)c1ccc2cc(OC(=O)c3ccc(N=C(N)N)cc3)ccc2c1", "note": "[nafamostat]", "values": [{"measurement": "inhibition of transmembrane serine protease 2", "setting": "[2]", "value": "strong inhibitors"}]}]}
